Common to all, as to design: unit not given here
Test [1] concerns the target T1, human TLR8 (wild type sequence) (Homo sapiens, UniProt Q9NR97).
T1 construct: expressed in transfected cells; host or cells: HEK293
T1 sequence (Q9NR97 27-1041): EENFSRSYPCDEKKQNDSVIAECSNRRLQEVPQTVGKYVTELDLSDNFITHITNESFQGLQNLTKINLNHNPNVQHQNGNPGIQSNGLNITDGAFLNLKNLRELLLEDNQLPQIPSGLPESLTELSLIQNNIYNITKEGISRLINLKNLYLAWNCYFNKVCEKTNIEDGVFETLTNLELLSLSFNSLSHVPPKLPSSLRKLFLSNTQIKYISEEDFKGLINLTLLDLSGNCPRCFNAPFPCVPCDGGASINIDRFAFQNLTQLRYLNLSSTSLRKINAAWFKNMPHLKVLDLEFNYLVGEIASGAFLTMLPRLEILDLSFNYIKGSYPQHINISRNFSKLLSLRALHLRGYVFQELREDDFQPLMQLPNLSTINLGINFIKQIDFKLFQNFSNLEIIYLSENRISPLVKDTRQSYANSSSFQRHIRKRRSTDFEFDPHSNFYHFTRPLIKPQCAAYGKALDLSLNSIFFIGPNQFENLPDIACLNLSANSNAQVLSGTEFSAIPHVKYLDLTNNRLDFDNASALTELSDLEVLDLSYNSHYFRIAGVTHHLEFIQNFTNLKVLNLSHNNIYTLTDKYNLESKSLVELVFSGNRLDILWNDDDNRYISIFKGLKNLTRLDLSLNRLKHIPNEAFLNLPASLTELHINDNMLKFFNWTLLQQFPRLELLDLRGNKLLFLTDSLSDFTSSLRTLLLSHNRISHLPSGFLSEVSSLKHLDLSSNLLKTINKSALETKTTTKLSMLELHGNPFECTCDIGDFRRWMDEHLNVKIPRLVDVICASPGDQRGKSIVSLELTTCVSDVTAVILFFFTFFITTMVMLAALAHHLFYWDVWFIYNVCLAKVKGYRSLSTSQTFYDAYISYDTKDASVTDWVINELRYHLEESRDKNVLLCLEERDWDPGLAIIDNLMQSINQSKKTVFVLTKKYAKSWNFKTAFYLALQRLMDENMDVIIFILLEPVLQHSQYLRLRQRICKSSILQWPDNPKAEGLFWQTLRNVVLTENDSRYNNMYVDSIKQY
In words: TLR8 cellular NFκB-luc reporter assay, wild type TLR8. As to conditions: lowest effective concentration, wild type TLR8 (compounds 74 onward). Format: cell-based. In outline: (§1)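 Luciferase readout followed 6 h of compound exposure at 37 °C, 5% CO2, with quadruplicate dose-response curves. The cells were HEK293 carrying an NFκB-luc reporter and either wild-type TLR7/TLR8 or a mutant with a second leucine-rich repeat deletion, expressed by 48 h transient transfection. LEC is the lowest concentration giving at least twofold over the assay SD.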
Background: A reporter such as luciferase makes a cellular process visible.

In test [2] the target is T2, human TLR7 (wild type sequence) (Homo sapiens, UniProt Q9NYK1).
T2 construct: expressed in transfected cells; host or cells: HEK293
T2 sequence (Q9NYK1 27-1049): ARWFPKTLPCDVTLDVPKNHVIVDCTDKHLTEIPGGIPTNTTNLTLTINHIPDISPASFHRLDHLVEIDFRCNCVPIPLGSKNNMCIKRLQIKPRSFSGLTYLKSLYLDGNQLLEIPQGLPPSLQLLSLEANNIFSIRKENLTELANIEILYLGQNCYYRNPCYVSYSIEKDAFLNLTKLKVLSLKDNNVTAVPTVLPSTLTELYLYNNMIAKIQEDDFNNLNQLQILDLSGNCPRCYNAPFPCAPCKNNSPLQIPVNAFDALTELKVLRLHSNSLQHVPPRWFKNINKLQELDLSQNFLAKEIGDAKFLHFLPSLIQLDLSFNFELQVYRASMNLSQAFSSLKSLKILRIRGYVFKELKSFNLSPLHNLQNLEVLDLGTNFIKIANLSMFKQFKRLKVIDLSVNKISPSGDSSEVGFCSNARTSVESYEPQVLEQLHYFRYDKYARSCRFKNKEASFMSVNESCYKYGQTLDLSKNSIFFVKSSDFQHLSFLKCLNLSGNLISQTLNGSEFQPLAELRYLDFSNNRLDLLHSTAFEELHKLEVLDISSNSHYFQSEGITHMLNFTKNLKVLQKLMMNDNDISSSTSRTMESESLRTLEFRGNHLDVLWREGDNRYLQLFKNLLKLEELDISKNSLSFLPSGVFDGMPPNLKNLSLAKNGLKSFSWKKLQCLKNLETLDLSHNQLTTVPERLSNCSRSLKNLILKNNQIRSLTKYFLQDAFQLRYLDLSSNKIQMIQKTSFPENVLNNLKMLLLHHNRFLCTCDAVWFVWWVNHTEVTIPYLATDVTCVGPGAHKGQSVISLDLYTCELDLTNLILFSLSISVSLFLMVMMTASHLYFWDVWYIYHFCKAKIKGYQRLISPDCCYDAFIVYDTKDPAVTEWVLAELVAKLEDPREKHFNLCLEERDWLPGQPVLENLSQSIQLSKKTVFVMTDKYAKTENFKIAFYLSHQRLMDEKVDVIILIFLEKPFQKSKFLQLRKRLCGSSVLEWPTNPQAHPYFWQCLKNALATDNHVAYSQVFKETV
In words: TLR7 cellular NFκB-luc reporter assay, wild type TLR7. Format: cell-based. As to conditions: lowest effective concentration, wild type TLR7 (compounds 74 onward). A digest of the protocol: as §1

Test [3] has as its system interferon-stimulated responsive elements (ISRE) in HEK-ISREluc cells. In words: Activation of ISRE promoter elements by conditioned media from compound-treated PBMC. Format: cell-based, human. As to conditions: conditioned media from compound-treated PBMC on HEK-ISREluc cells. The procedure: The potential of compounds to induce IFN-I was also evaluated by measuring the activation of interferon-stimulated responsive elements (ISRE) by conditioned media from PBMC. […] The plasmid pISRE-Luc from Clontech (ref. 631913) contains 5 copies of this ISRE element, followed by the firefly luciferase ORF. A HEK293 cell line stably transfected with pISRE-Luc (HEK-ISREluc) was established to profile of the conditioned PBMC cell culture media.
Briefly, PBMCs were prepared from buffy coats of at least two donors using a standard Ficoll centrifugation protocol. Isolated PBMCs were resuspended in RPMI medium supplemented with 10% human AB serum and 2×10^5 cells/well were dispensed into 384-well plates containing compounds (70 μL total volume). After overnight incubation, 10 μL of supernatant was transferred to 384-well plates containing 5×10^3 HEK-ISREluc cells/well in 30 μL (plated the day before). Following 24 hours of incubation, activation of the ISRE elements was measured by assaying luciferase activity using 40 μL/well Steady Lite Plus substrate (Perkin Elmer) and measured with ViewLux ultraHTS microplate imager (Perkin Elmer). The stimulating activity of each compound on the HEK-ISREluc cells was reported as LEC value, defined as the compound concentration applied to the PBMCs resulting in a luciferase activity at least two fold above the standard deviation of the assay. The LEC in turn indicates the degree of ISRE activation on transfer of a defined amount of PBMC culture medium. Recombinant interferon α-2a (Roferon-A) was used as a standard control compound.
For a given compound, the LEC value obtained from this assay were in the same range as the EC50 values obtained from the “suppression of HCV replication assay.” Thus, it is possible to compare the potential of compounds to induce IFN-I by PBMC, measured by either of the 2 assays.

For `CCC[C@@H](CO)Nc1nc(N)ncc1OCc1ncc(C)c(OC)c1C` [Compound 76], the “TLR 8 wt LEC” value in test [1] came to 0.055. Further, the “TLR 7 wt LEC” value in test [2] worked out at 0.021. The “HEK-ISREluc LEC” value in test [3] is 0.008.

Regarding `CCCCNc1nc(N)ncc1OCc1cccc(CO)c1` [Compound 77], in test [1], the “TLR 8 wt LEC” value was 0.623. Besides, the “TLR 7 wt LEC” value in test [2] is 0.449. In addition, the “HEK-ISREluc LEC” value in test [3] came out at 0.137.

As to `CCCC[C@@H](CO)Nc1nc(N)ncc1OCc1cc(C)nn1C` [Compound 79], in test [1], the “TLR 8 wt LEC” value is given as 0.329. Also, in test [2], the “TLR 7 wt LEC” value was determined as 1.620. In test [3], the “HEK-ISREluc LEC” value was found to be 0.235.

Turning to `CCCC[C@@H](CO)Nc1nc(N)ncc1OCc1cccc(C(N)=O)n1` [Compound 80], the “TLR 8 wt LEC” value in test [1] worked out at 0.041. The “TLR 7 wt LEC” value in test [2] came to 0.560. In test [3], the “HEK-ISREluc LEC” value is on record as 0.027.

On to `CCCC[C@@H](CCO)Nc1nc(N)ncc1OCc1cc(C)nn1C` [Compound 81], for which, in test [1], the “TLR 8 wt LEC” value is on record as 0.429. Also, in test [2], the “TLR 7 wt LEC” value is 0.101. In addition, the “HEK-ISREluc LEC” value in test [3] is on record as 0.086.

On to `CCCCNc1nc(N)ncc1OCc1c[nH]nn1` [Compound 86], for which the “TLR 8 wt LEC” value in test [1] came out at 3.750. Besides, the “TLR 7 wt LEC” value in test [2] stood at 0.646. Further, the “HEK-ISREluc LEC” value in test [3] is on record as 0.131.

Take `CCC[C@@H](CCO)Nc1nc(N)ncc1OCc1[nH]ccc(=O)c1OC` [Compound 88]: in test [3], the “HEK-ISREluc LEC” value amounted to 0.050.

For the compound `CCCC[C@@H](CCOC(=O)NCC)Nc1nc(N)ncc1OC` [Compound 89], the “TLR 8 wt LEC” value in test [1] came out at 6.670. Further, the “TLR 7 wt LEC” value in test [2] is 1.670. Besides, the “HEK-ISREluc LEC” value in test [3] is 0.526.
